Measurements as given in PMC10533049, “Anti-Inflammatory Halogenated Monoterpenes from the Red Alga Portieria hornemannii” (Marine Drugs, 2023).
Where two headings read alike, the source gives them in different places.

What was measured:
[1] = test system: TNF-α; assay: TNF-α expression in LPS-stimulated dendritic cells (ELISA); assay type: cell-based; details: for IC50: Dendritic cell; for Anti-inflammatory activity (result in words): LPS-stimulated dendritic cells, pro-inflammatory cytokine / TNF-α production
Method: (§1) In this study, the viability of D.C. cells was evaluated at a concentration of 100 μg/mL using a cell-counting-kit assay (CCK-8) obtained from Dojindo Molecular Technologies, Inc. (Kumamoto, Japan), which measured absorbance at a wavelength of 450 nm, following the methodology outlined by Chung et al.. The expression of the pro-inflammatory cytokine, TNF-α, in the culture supernatant was screened using the dendritic cells ELISA kit, as described in a previous study.

[2] = Viability of dendritic cells (CCK-8 assay); assay type: cell-based; details: for viability at 100 μg/mL: DCs, CCK-8, mean ± S.D., triplicate, read-out: Cell Viability (%) (DCs)
Method: as §1

[3] = test system: cell lines derived from the brain, kidney, and colon; design: method as in PMID 1501227, PMID 9443608; details: cited from earlier work
[4] = read-out: Anti-Inflammatory Activity (IC50) TNF-α Expression (LPS/DCs)

SMILES	IC50 [1, 4] [µM]	viability at 100 μg/mL [2] [%]	Anti-inflammatory activity (result in words) [1]	Cytotoxicity in NCI human tumor cell line screen (result in words) [3]	IC50 ([1]; LPS-stimulated DCs, unit inferred, read-out: IC50, reduction of TNF-α production in LPS-stimulated dendritic cells) [µM]	IC50 ([2]; dendritic cells (DCs), positive control, read-out: Cytotoxicity against DCs, IC50) [µM]
C=C[C@@](C)(Cl)[C@@H](Cl)/C=C/C(C)(Cl)C(Cl)Cl (relative stereo) [Compound 2, (3R*,4S*,5E)-3,4,7,8,8-Pentachloro-3,7-dimethyl-octa-1,5-diene]	> 100	88.8 ± 8.1				
C=C[C@@](C)(Cl)[C@@H](Br)/C=C/[C@](C)(Cl)C(Cl)Cl [Compound 1, (3R,4S,5E,7S)-4-Bromo-3,7,8,8-tetrachloro-3,7-dimethyl-octa-1,5-diene]	2.5 ± 0.4	47 ± 2.1	significantly reduce the TNF-α			
C=C[C@](C)(Cl)[C@H](Cl)/C=C/C(=C/Cl)C(Br)Br [Compound 3, (3S,4R,5E,7Z)-3,4,8-trichloro-7-dibromomethyl-3-methyl-octa-1,5,7-triene]	> 100	80.2 ± 8.3	did not show any activity			
C=C[C@@](C)(Cl)[C@@H](Cl)/C=C/C(=C/Cl)C(Cl)Cl [Compound 4]	6.2 ± 1.1	51.1 ± 2.2	significantly reduce the TNF-α			
C=C[C@@](C)(Cl)[C@H](Cl)/C=C/C(=C/Cl)C(Cl)Cl [Compound 5]	10.6 ± 1.3	49.1 ± 2.7	significantly reduce the TNF-α			
C=C(Cl)[C@](Cl)(CBr)CC[C@@H](Br)C(C)(C)Cl [halomon]				significant differential cytotoxicity		
O=c1c(O)c(-c2ccc(O)c(O)c2)oc2cc(O)cc(O)c12 [quercetin, reference compound]					23.1 ± 5.2	78.8 ± 7.3
